Tests used:
[1] = test system: PSD-95; experiment: PSD-95 expression in primary hippocampal neurons (immunofluorescence); assay type: cell-based, rat; conditions: 20 hr
Experimental: (§1) Cells were grown in two chambered slides (Nunc, USA) at low density. For immunofluorescence staining, the cells were washed with PBS (pH 7.4) and fixed with 4% paraformaldehyde for 4 min. Following fixation, the cells were blocked and permeabilized with 5% serum and 0.3% Triton X-100 in 1×PBS for 30 min. Cells were washed three times with 1×PBS and incubated with primary antibodies for 1 hr at 1:100 dilution. After the incubation, the slides were again washed three times in 1×PBS and were incubated with the FITC anti-mouse IgG and Rhodamine anti-rabbit IgG for 1 hr at 1:400 dilution. The cells were further washed and stained with DAPI (4′,6-diamidino-2′-phenylindole, dihydrochloride) (Thermo Scientific, USA) to stain the nucleus. Finally, the slides were washed and mounted in Pro Long Gold antifade mounting solution (Invitrogen, USA) and were viewed under a LSM 710 Meta confocal microscope (Zeiss) at 350 nm, 490 nm, and 540 nm excitation and 470 nm, 525 nm, and 625 nm emission for DAPI, FITC, and Rhodamine respectively. Six individual fields at 63× oil lens magnification were analyzed for the mean fluorescence intensity (MFI) in each channel.
To estimate the synaptic damage caused by the ASPDs on primary hippocampal neurons, the expression of synaptophysin (a presynaptic marker) and PSD-95 (a postsynaptic marker) was measured by immunofluorescence staining. […] Following a 20 hr incubation period, the cells were stained for nucleus, PSD-95, and synaptophysin. Expression levels were calculated as the change of percentage in mean fluorescence intensity compared to untreated cells.
Primary neurons, treated and untreated, were immunostained for MAP-2, synaptophysin, and PSD-95 to determine the synaptic integrity. […] Following a 20 hr incubation period, the cells were stained for MAP-2, PSD-95, and synaptophysin as described above.

[2] = test system: PKC-ε; experiment: PKC-ε translocation to membrane in SH-SY5Y neuroblastoma cells (Western Blot); assay type: cell-based, human
Experimental: Cells were harvested in homogenizing buffer containing 10 mM Tris-Cl (pH 7.4), 1 mM PMSF (phenylmethylsulfonyl fluoride), 1 mM EGTA, 1 mM EDTA, 50 mM NaF, and 20 μM leupeptin, and were lysed by sonication. The homogenate was centrifuged at 100,000×g for 15 min at 4° C. to obtain the cytosolic fraction (supernatant) and membrane (pellet). The pellet was resuspended in the homogenizing buffer by sonication. For whole cell protein isolation from primary neurons, the homogenizing buffer contained 1% Triton X-100. Protein concentration was measured using the Coomassie Plus (Bradford) Protein Assay kit (Pierce, USA). Following quantification, 20 μg of protein from each sample was subjected to SDS-PAGE analysis in a 4-20% gradient Tris-Glycine gel (Invitrogen, USA). The separated protein was then transferred to a nitrocellulose membrane. The membrane was blocked with 5% BSA at room temperature for 15 min and was incubated with primary antibody overnight at 4° C. After the incubation, it was washed three times with TBS-T (Tris Buffered Saline-Tween 20) and further incubated with alkaline phosphatase conjugated secondary antibody (Jackson Immunoresearch Laboratories, USA) at 1:10000 dilution for 45 min. The membrane was finally washed three times with TBS-T and developed using the 1-step NBT-BCIP substrate (Pierce, USA). The blot was imaged in an ImageQuant RT-ECL (GE Life Sciences, Piscataway, N.J.) and densitometric quantification was performed using IMAL software (Blanchette Rockefeller Neurosciences Institute, Morgantown, W. Va.). For translocation assays, PKC activation was represented as the percentage of total protein in the membrane (membrane/cytosol+membrane).

[3] = test system: rat hippocampal neurons; experiment: Dendritic branching in seven day old rat hippocampal neurons (confocal microscopy); assay type: cell-based; conditions: 100 nM, 48 hr
Experimental: The effect of DCPLA-ME on development of primary neurons was investigated. Seven day old rat hippocampal neurons were treated with DCPLA-ME (100 nM) for 48 hr. Immunofluorescence and confocal microscopy-cells were grown in four chambered slides (Nunc, USA) at low density. For immunofluorescence staining the cells were washed with PBS (pH 7.4) and fixed with 4% paraformaldehyde for 4 min. Following fixation, cells were blocked and permeabilized with 5% serum and 0.3% Triton X-100 in 1×PBS for 30 min. Cells were washed 3× with 1×PBS and incubated with primary antibodies for 1 hr at 1:100 dilution. After the incubation slides were again washed 3× in 1×PBS and were incubated with the FITC anti-rabbit IgG and Rhodamine anti-mouse IgG for 1 hr at 1:400 dilution. Cells were further washed and mounted in Pro Long Gold antifade mounting solution (Invitrogen, USA). Stained cells were viewed under the LSM 710 Meta confocal microscope (Zeiss) at 350 nm, 490 nm and 540 nm excitation and 470 nm, 525 nm and 625 nm emission for DAPI, FITC and rhodamine respectively. Six individual fields at 20× or 63× oil lens magnification were analyzed for the mean fluorescence intensity (MFI) in each channel. The colocalization correlation was generated by the ZEN software (Zeiss).

[4] = test system: PKC-ε; experiment: PKC-ε level in primary neurons (immunofluorescence, Western Blot); assay type: cell-based, rat
Experimental: as §1
Cells were harvested in homogenizing buffer containing 10 mM Tris-Cl (pH 7.4), 1 mM PMSF (phenylmethylsulfonyl fluoride), 1 mM EGTA, 1 mM EDTA, 50 mM NaF, and 20 μM leupeptin, and were lysed by sonication. The homogenate was centrifuged at 100,000×g for 15 min at 4° C. to obtain the cytosolic fraction (supernatant) and membrane (pellet). The pellet was resuspended in the homogenizing buffer by sonication. […] Protein concentration was measured using the Coomassie Plus (Bradford) Protein Assay kit (Pierce, USA). Following quantification, 20 μg of protein from each sample was subjected to SDS-PAGE analysis in a 4-20% gradient Tris-Glycine gel (Invitrogen, USA). […] The blot was imaged in an ImageQuant RT-ECL (GE Life Sciences, Piscataway, N.J.) and densitometric quantification was performed using IMAL software (Blanchette Rockefeller Neurosciences Institute, Morgantown, W. Va.). […]

Row | Molecule | PSD-95 mean fluorescence intensity ([1]; 50 nM ASPD + 100 nM DCPLA-ME) | PKC-ε translocation in ASPD-treated cells ([2]; ASPD + DCPLA-ME, FIG. 8D) | Synaptophysin staining [3] | PKC-ε protein level (Western Blot) ([4]; ASPD-treated primary neurons, 100 nM DCPLA-ME) | PSD-95 mean fluorescence intensity ([1]; 50 nM ASPD) | decrease of PSD-95 expression ([1]; 50 nM ASPD) [%] | reduction of PKC-ε membrane translocation ([2]; ASPD 50 nM) [%] | PKC-ε membrane translocation ([2]; ASPD 50 nM, relative to control) [%] | PKC-ε immunofluorescence level ([4]; ASPD, 20 hr, primary neurons)
1 | CCCCCC1CC1CC1CC1CCCCCCCC(=O)OC (stereo not drawn) [DCPLA-ME, DCPLA methyl ester] | 99.2±11.3 % of control | restored PKC-ε translocation to normal | increased | restored the PKC-ε protein level to normal |  |  |  |  | 
2 | ASPD: Amylospheroids from Aβ1-42, 100 kDa filter retentate, containing 39 monomers on average |  |  |  |  | 67.63±7.24 % of control | 42 | 46 | 69.98±3.27 | 60.81±5.85 % compared to control
